According to US6825350B2, “Sulfonamide and sulfamide substituted imidazoquinolines and methods for the treatment of periodontal disease using these and other immune response modifiers” (3M Innovative Properties Company, priority 1999, dated 2004):
Counter-ions that a name gives are not always drawn. Like-named read-outs stand apart in the source and are kept apart here.

Experiments:
interferon (α) = test: Cytokine induction in human cells: interferon (α) by ELISA; type: cell-based; conditions: human PBMCs, 18 to 24 hours incubation, ELISA of culture supernatant, read-out: Lowest Effective Concentration (μM) Interferon
[1] = tested on: tumor necrosis factor (α); test: Cytokine induction in human cells: tumor necrosis factor (α) by ELISA; type: cell-based; conditions: human PBMCs, 18 to 24 hours incubation, ELISA of culture supernatant, read-out: Lowest Effective Concentration (μM) Tumor Necrosis Factor

Structure (SMILES) | minimal effective concentration (interferon (α); Homo sapiens, PBMC) [µM] | melting point | minimal effective concentration ([1]; Homo sapiens, PBMC) [µM] | minimal effective concentration (interferon (α)) [µM] | minimal effective concentration [1] [µM]
CCCCc1nc2c(N)nc3ccccc3c2n1CCCCNS(=O)(=O)c1cccc2c(N(C)C)cccc12 [Example 1, N^1-[4-(4-Amino-2-butyl-1H-imidazo[4,5-c]quinolin-1-yl)butyl]-5-(dimethylamino)-1-naphthalenesulfonamide] | 0.12 | 223 to 224 °C | 3.33 | – | –
COc1ccc(Cc2nc3c(N)nc4ccccc4c3n2CCCCNS(C)(=O)=O)cc1 [Example 12, N-[4-(4-Amino-2-(4-methoxybenzyl)-1H-imidazo[4,5-c]quinolin-1-yl]butyl]methanesulfonamide] | – | 78.1 to 79.5 °C | – | – | –
CCCCc1nc2c(N)nc3ccccc3c2n1CCCCNS(=O)(=O)c1cccc(N)c1 (as salt: hydrochloride) | – | 110.2 °C (dec.) | – | – | –
CCCCc1nc2c(N)nc3ccccc3c2n1CCCCNS(=O)(=O)c1cccs1 [Example 3, N^2-[4-(4-Amino-2-butyl-1H-imidazo[4,5-c]quinolin-1-yl)butyl]-2-thiophenesulfonamide] | – | 137.5 to 141.5 °C | – | 0.01 | –
Nc1nc2ccccc2c2c1nc(-c1ccccc1)n2CCCCNS(=O)(=O)c1ccc(F)cc1 [Example 15, N-[4-(4-Amino-2-phenyl-1H-imidazo[4,5-c]quinolin-1-yl)butyl]-4-fluoro-1-benzenesulfonamide] | – | 214 to 216 °C | – | – | –
CCCCc1nc2c(N)nc3ccccc3c2n1CCCCNS(=O)(=O)c1ccc([N+](=O)[O-])cc1 (as salt: hydrochloride) [Example 9, N^1-[4-(4-Amino-2-butyl-1H-imidazo[4,5-c]quinolin-1-yl)butyl]-4-nitro-1-benzenesulfonamide Hydrochloride] | – | 96 °C (dec.) | – | – | –
CCCCc1nc2c(N)nc3ccccc3c2n1CCCCNS(=O)(=O)Cc1ccccc1 [Example 4, N-[4-(4-Amino-2-butyl-1H-imidazo[4,5-c]quinolin-1-yl)butyl]phenylmethanesulfonainide] | – | 197 to 199.5 °C | – | – | –
CCCCc1nc2c(N)nc3ccccc3c2n1CCCCNS(=O)(=O)c1cccc([N+](=O)[O-])c1 (as salt: hydrochloride) [Example 7, N^1-[4-(4-Amino-2-butyl-1H-imidazo[4,5-c]quinolin-1-yl)butyl]-3-nitro-1-benzenesulfonamide Hydrochloride] | – | 176 to 178.2 °C | – | – | –
CN(C)c1cccc2c(S(=O)(=O)NCCCCn3cnc4c(N)nc5ccccc5c43)cccc12 [Example 2, N^1-[4-(4-Amino-1H-imidazo[4,5-c]quinolin-1-yl)butyl]-5-(dimethylamino)-1-naphthalenesulfonamide] | > 30 | 200 to 201 °C | > 30 | – | –
CCCCc1nc2c(N)nc3ccccc3c2n1CCCCNS(=O)(=O)c1ccccc1 [Example 5, N^1-[4-(4-Amino-2-butyl-1H-imidazo [4,5-c]quinolin-1-yl)butyl]-1-benzenesulfonamide] | – | 75.5 to 79 °C | – | – | –
CCCCc1nc2c(N)nc3ccccc3c2n1CCCCNS(=O)(=O)c1cccc2cnccc12 [Example 11, N^5-[4-(4-Amino-2-butyl-1H-imidazo[4,5-c]quinolin-1-yl)butyl]-5-isoquinolinesulfonamide] | 0.01 | 96 °C (dec.) | 1.11 | – | –
CCCS(=O)(=O)NCCCCn1c(CCOC)nc2c(N)nc3c(c21)CCCC3 [Example 208] | 0.0001 | – | 1 | – | –
CCCCc1nc2c(N)nc3ccccc3c2n1CCCCNS(=O)(=O)c1ccc2ccccc2c1 [Example 42] | 0.01 | – | > 30 | – | –
CCCCc1nc2c(N)nc3ccccc3c2n1CCCCNS(=O)(=O)c1c(C)noc1C [Example 94] | 0.001 | – | 1 | – | –
CCCCc1nc2c(N)nc3ccccc3c2n1CCCCNS(=O)(=O)c1cccc2cccnc12 [Example 43] | 0.04 | – | > 30 | – | –
CCCCc1nc2c(N)nc3ccccc3c2n1CCCCNS(=O)(=O)CCCCl [Example 82] | 0.001 | – | 1 | – | –
CCCCc1nc2c(N)nc3ccccc3c2n1CCCCNS(=O)(=O)c1cccc(OC)c1 [Example 104] | 0.01 | – | > 10 | – | –
COCCc1nc2c(N)nc3ccccc3c2n1CCCCNS(=O)(=O)C[C@@]12CCC(CC1=O)C2(C)C [Example 200] | 0.01 | – | 0.1 | – | –
COCCc1nc2c(N)nc3ccccc3c2n1CCCCNS(=O)(=O)C[C@]12CCC(CC1=O)C2(C)C [Example 148] | 0.0001 | – | 1 | – | –
CCCCc1nc2c(N)nc3ccccc3c2n1CCCCNS(=O)(=O)c1cc(Br)ccc1OC [Example 105] | – | – | – | 1 | 10

Structure (SMILES) | minimal effective concentration (interferon (α); Homo sapiens, PBMC) [µM] | melting point | minimal effective concentration ([1]; Homo sapiens, PBMC) [µM] | minimal effective concentration (interferon (α)) [µM] | minimal effective concentration [1] [µM]
CCCCc1nc2c(N)nc3ccccc3c2n1CCCCNS(=O)(=O)c1ccc(OC)c(OC)c1 [Example 81] | 0.001 | – | 1 | – | –
CS(=O)(=O)NCCCCn1c(-c2ccccc2)nc2c(N)nc3ccccc3c21 [Example 16, N-[4-(4-Amino-2-phenyl-1H-imidazo[4,5-c]quinolin-1-yl)butyl]methanesulfonamide] | – | 234 to 235 °C | – | – | –
COCCc1nc2c(N)nc3c(c2n1CCCCNS(=O)(=O)c1ccc(F)cc1)CCCC3 [Example 14, N^1-{4-[4-Amino-2-(2-methoxyethyl)-6,7,8,9-tetrahydro-1H-imidazo[4,5-c]quinolin-1-yl]butyl}-4-fluoro-1-benzenesulfonamide] | – | 191 to 193 °C | – | – | –
Nc1nc2c(c3c1ncn3CCCCNS(=O)(=O)c1ccc(Cl)cc1)CCCC2 [Example 59] | 3.33 | – | > 30 | – | –
CCCCc1nc2c(N)nc3c(c2n1CCCCNS(=O)(=O)c1cccs1)CCCC3 [Example 204] | 0.0001 | – | 1 | – | –
Nc1nc2c(c3c1ncn3CCCCNS(=O)(=O)c1ccc(I)cc1)CCCC2 [Example 61] | 3.33 | – | > 30 | – | –
CCOCc1nc2c(N)nc3ccccc3c2n1CCNS(C)(=O)=O [Example 108] | 0.1 | – | 10 | – | –
CCCCc1nc2c(N)nc3ccccc3c2n1CCCCNS(=O)(=O)c1ccccc1C(F)(F)F [Example 103] | 0.1 | – | 10 | – | –
CCCCc1nc2c(N)nc3ccccc3c2n1CCCCNS(=O)(=O)c1c(C)cc(C)cc1C [Example 45] | 0.37 | – | > 30 | – | –
CCCCc1nc2c(N)nc3ccccc3c2n1CCCCNS(=O)(=O)c1cccc(C(F)(F)F)c1 [Example 80] | 1 | – | 10 | – | –
CCCCc1nc2c(N)nc3ccccc3c2n1CCNS(=O)(=O)c1cc(Br)ccc1OC [Example 24] | 0.12 | – | 30 | – | –
CCCCc1nc2c(N)nc3ccccc3c2n1CCCCNS(=O)(=O)c1ccc(N)cc1 (as salt: hydrochloride) | – | 203.1 to 205 °C | – | – | –
COCCc1nc2c(N)nc3ccccc3c2n1CCCCNS(=O)(=O)c1ccc(OC(F)(F)F)cc1 [Example 154] | 0.001 | – | 10 | – | –
CCCCS(=O)(=O)NCCCCn1c(CCOC)nc2c(N)nc3c(c21)CCCC3 [Example 209] | 0.0001 | – | 0.1 | – | –
COCCc1nc2c(N)nc3ccccc3c2n1CCCCNS(C)(=O)=O [Example 111] | 0.001 | – | 10 | – | –
COCCc1nc2c(N)nc3ccccc3c2n1CCCCNS(=O)(=O)N[C@H](C)c1ccccc1 [Example 226] | 0.0001 | – | 0.1 | – | –
COCCc1nc2c(N)nc3ccccc3c2n1CCCCNS(=O)(=O)c1c(C)noc1C [Example 123] | 0.0001 | – | 10 | – | –
CCCCc1nc2c(N)nc3ccccc3c2n1CCCCNS(=O)(=O)/C=C/c1ccccc1 [Example 50] | 0.12 | – | > 30 | – | –
COCCc1nc2c(N)nc3ccccc3c2n1CCCCNS(=O)(=O)c1cccc(F)c1 [Example 122] | 0.0001 | – | 1 | – | –
